{
  "source": "paper PMC8301998",
  "about": "“Discovery of Novel Allosteric Modulators Targeting an Extra-Helical Binding Site of GLP-1R Using Structure- and Ligand-Based Virtual Screening” (Biomolecules, 2021)",
  "key": {"GLP-1R C347F mutant [1]": {"target": "T1, GLP-1R C347F mutant (Homo sapiens, UniProt P43220, C347F)", "T1 construct": "expressed in transfected cells", "T1 sequence (P43220 24-463 C347F)": "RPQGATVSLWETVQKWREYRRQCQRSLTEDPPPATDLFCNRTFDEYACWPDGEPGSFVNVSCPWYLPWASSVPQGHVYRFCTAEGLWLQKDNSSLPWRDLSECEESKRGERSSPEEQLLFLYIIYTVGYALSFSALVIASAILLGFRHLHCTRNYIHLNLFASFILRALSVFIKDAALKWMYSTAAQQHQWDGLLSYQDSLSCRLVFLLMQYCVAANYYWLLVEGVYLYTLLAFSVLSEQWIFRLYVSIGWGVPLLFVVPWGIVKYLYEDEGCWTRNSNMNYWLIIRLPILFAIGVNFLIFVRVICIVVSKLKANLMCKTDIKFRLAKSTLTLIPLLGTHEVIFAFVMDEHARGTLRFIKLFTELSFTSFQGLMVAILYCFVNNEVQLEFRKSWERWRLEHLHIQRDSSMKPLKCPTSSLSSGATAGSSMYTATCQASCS", "test": "Whole cell binding assay, competition with radiolabeled GLP-1 at mutant GLP-1R", "description": "(§1) For homogeneous binding, cells were washed twice and incubated with a blocking buffer (F12 supplemented with 33 mM HEPES, and 0.1% (w/v) BSA, pH 7.4) for 2 h at 37 °C. […] Cells were washed three times with ice-cold PBS and lysed using 50 μL of lysis buffer (PBS supplemented with 20 mM Tris–HCl and 1% Triton X-100, pH 7.4). Subsequently, the plates were counted for radioactivity (counts per minute, CPM) in a scintillation counter (MicroBeta^2 Plate Counter, PerkinElmer, Waltham, MA, USA) using a scintillation cocktail (OptiPhaseSuperMix; PerkinElmer, Waltham, MA, USA)."}, "GLP-1R [2]": {"target": "T2, GLP-1R (Homo sapiens, UniProt P43220)", "T2 sequence (P43220 24-463)": "as the sequence (P43220 24-463 C347F) above, with F324C counted along it", "settings": "for Modulation of GLP-1-elicited cAMP accumulation / GLP-1 potency (in words): GLP-1R expressing CHO-K1 cells", "description": "(§2) cAMP accumulation was measured using the LANCE Ultra cAMP kit (PerkinElmer, Boston, MA, USA) according to the manufacturer’s instructions. […] Cells were then resuspended with assay buffer (DMEM, 0.1% BSA, 5 mM HEPES) and seeded onto 384-well plates (6 × 10^5/mL, 5 μL/well). […] After the addition of 5 μL of Eu-cAMP tracer and ULight-anti-cAMP, the reactions were stopped. The plates were left for 1 h at room temperature to measure time-resolved FRET signals at excitation wavelengths of 620 nm and 665 nm by EnVision (PerkinElmer, Waltham, MA, USA)."}, "GLP-1R [3]": {"target": "T2, GLP-1R", "settings": "for Effect on binding of GLP-1 to GLP-1R (in words): radiolabeled GLP-1, WT GLP-1R", "description": "as §1"}, "GLP-1R C347F mutant [4]": {"target": "T1, GLP-1R C347F mutant", "settings": "cited from earlier work"}, "GLP-1R [5]": {"target": "T2, GLP-1R", "test": "cell-based", "description": "as §2"}, "GLP-1R [6]": {"target": "T2, GLP-1R", "test": "cell-based", "remark": "listed apart in the source", "description": "as §1"}, "[7]": {"settings": "Table 1, NAMs from SBVS, relative to maximal response of GLP-1 at WT receptor"}, "[8]": {"settings": "Table 1, NAMs, competition with 125I-GLP-1 (40 pM), whole cells"}, "[9]": {"settings": "Table 3, PAMs from LBVS, relative to maximal response of GLP-1 at WT receptor"}, "[10]": {"settings": "Table 3, PAMs, competition with 125I-GLP-1 (40 pM), whole cells"}, "[11]": {"settings": "Table 4, analogues of new PAMs, competition with 125I-GLP-1"}},
  "note": "pEC50, pIC50: −log10 of the molar value. Read-outs that look alike come from different tables or passages of the source.",
  "data": [
    {"molecule": "O=C(Nc1ccc(Cl)cc1)Nc1snnc1C(=O)Nc1ccc(C(=O)O)cc1", "note": "[Z42]", "values": [
      {"measurement": "Binding at C347F mutant (in words)", "setting": "GLP-1R C347F mutant [1]", "value": "enhanced the ligand binding"},
      {"measurement": "Modulation of GLP-1-elicited cAMP accumulation / GLP-1 potency (in words)", "setting": "GLP-1R [2]", "value": "negatively modulated"},
      {"measurement": "cAMP Accumulation Emax (% WT)", "setting": "GLP-1R [2]; [7]", "value": "99.72 ± 0.80", "unit": "% WT"},
      {"measurement": "Binding Span ± SEM", "setting": "GLP-1R [3]; [8]", "value": "N.B. ^d"},
      {"measurement": "Binding pIC50 ± SEM", "setting": "GLP-1R [3]; [8]", "value": "N.B. ^d"}
    ]},
    {"molecule": "O=C(CSc1nnc[nH]1)Nc1sc2c(c1C(=O)NCc1ccccc1)CCCC2", "note": "[C31]", "values": [
      {"measurement": "cAMP Accumulation Emax (% WT)", "setting": "GLP-1R [2]; [9]", "value": "91.0 ± 0.95", "unit": "% WT"},
      {"measurement": "Binding Span ± SEM", "setting": "GLP-1R [3]; [10]", "value": "−102.5 ± 6.85"}
    ]},
    {"molecule": "O=C(Cn1c(COc2ccccc2)nc2ccccc21)Nc1ccc(Cc2nnn[nH]2)cc1", "note": "[C10]", "values": [
      {"measurement": "cAMP Accumulation Emax (% WT)", "setting": "GLP-1R [2]; [9]", "value": "92.93 ± 4.4", "unit": "% WT"},
      {"measurement": "Binding Span ± SEM", "setting": "GLP-1R [3]; [10]", "value": "76.17 ± 16.21"}
    ]},
    {"molecule": "CC(C)(C)Nc1nc2cc(Cl)c(Cl)cc2nc1S(C)(=O)=O", "note": "[compound 2, 6,7-dichloro-3-methanesulfonyl-2-tert-butylamino-quinoxaline]", "values": [
      {"measurement": "Binding at C347F mutant (in words)", "setting": "GLP-1R C347F mutant [4]", "value": "abolishment"}
    ]},
    {"molecule": "CCCCN(CC(=O)N(Cc1cccn1Cc1ccccc1)C1CC1)C(=O)C1CCCC1", "note": "[CD3559-D005]", "values": [
      {"measurement": "cAMP Accumulation Emax (% WT)", "setting": "GLP-1R [2]; Table 4, analogues of new PAMs", "value": "78.2 ± 13.6", "unit": "% WT"},
      {"measurement": "Binding Span ± SEM", "setting": "GLP-1R [3]; [11]", "value": "35.25 ± 11.50"}
    ]},
    {"molecule": "Cc1ccc(-c2nn(-c3ccccc3)cc2C(=O)Nc2cccc(-n3cnnn3)c2)o1", "note": "[C23]", "values": [
      {"measurement": "pEC50", "setting": "GLP-1R [5]", "value": 4.80},
      {"measurement": "Modulation of GLP-1-elicited cAMP accumulation / GLP-1 potency (in words)", "setting": "GLP-1R [2]", "value": "positively modulated GLP-1 potency"},
      {"measurement": "cAMP Accumulation Emax (% WT)", "setting": "GLP-1R [2]; [9]", "value": "98.5 ± 3.6", "unit": "% WT"},
      {"measurement": "Binding Span ± SEM", "setting": "GLP-1R [3]; [10]", "value": "N.B. ^d"},
      {"measurement": "Binding pIC50 ± SEM", "setting": "GLP-1R [3]; [10]", "value": "N.B. ^d"}
    ]},
    {"molecule": "CN(CC(=O)N1CCC(C(=O)O)CC1)C(=O)c1cccn1CCc1ccccc1", "note": "[C11]", "values": [
      {"measurement": "pIC50", "setting": "GLP-1R [6]", "value": 5.05},
      {"measurement": "Modulation of GLP-1-elicited cAMP accumulation / GLP-1 potency (in words)", "setting": "GLP-1R [2]", "value": "positively modulated GLP-1 potency"},
      {"measurement": "Binding Span ± SEM", "setting": "GLP-1R [3]; [10]", "value": "−46.37 ± 5.83"}
    ]},
    {"molecule": "CCOc1ccc(S(=O)(=O)Nc2ccccc2C(=O)OCC(=O)Nc2cc(C)on2)cc1", "note": "[C13]", "values": [
      {"measurement": "cAMP Accumulation Emax (% WT)", "setting": "GLP-1R [2]; [9]", "value": "76.6 ± 6.24", "unit": "% WT"}
    ]},
    {"molecule": "COc1ccc(S(=O)(=O)Nc2cccc(C(=O)Nc3cc(C)on3)c2)cc1", "note": "[JK1719-D011]", "values": [
      {"measurement": "cAMP Accumulation Emax (% WT)", "setting": "GLP-1R [2]; Table 4, analogues of new PAMs", "value": "126.1 ± 4.2", "unit": "% WT"},
      {"measurement": "Binding Span ± SEM", "setting": "GLP-1R [3]; [11]", "value": "59.69 ± 15.13"},
      {"measurement": "Effect on binding of GLP-1 to GLP-1R (in words)", "setting": "GLP-1R [3]", "value": "weakened the ligand binding"}
    ]},
    {"molecule": "Cc1ccc(NS(=O)(=O)c2ccc(NC(=O)c3n[nH]c4c3COc3ccccc3-4)cc2)cc1", "note": "[CD1652-A009]", "values": [
      {"measurement": "pIC50", "setting": "GLP-1R [6]", "value": 5.39},
      {"measurement": "cAMP Accumulation Emax (% WT)", "setting": "GLP-1R [2]; Table 4, analogues of new PAMs", "value": "114.9 ± 8.6", "unit": "% WT"},
      {"measurement": "Binding Span ± SEM", "setting": "GLP-1R [3]; [11]", "value": "51.92 ± 9.60"}
    ]},
    {"molecule": "COc1ccc(NC(=O)c2n[nH]c3ccc([N+](=O)[O-])cc23)cc1NS(=O)(=O)c1ccc(F)cc1", "note": "[C26]", "values": [
      {"measurement": "cAMP Accumulation Emax (% WT)", "setting": "GLP-1R [2]; [9]", "value": "89.4 ± 3.72", "unit": "% WT"},
      {"measurement": "Binding Span ± SEM", "setting": "GLP-1R [3]; [10]", "value": "−82.09 ± 13.44"}
    ]},
    {"molecule": "COc1ccccc1NS(=O)(=O)c1cc(NC(=O)c2ccc(=O)n(C)n2)ccc1N1CCCC1", "note": "[C22]", "values": [
      {"measurement": "cAMP Accumulation Emax (% WT)", "setting": "GLP-1R [2]; [9]", "value": "96.9 ± 4.56", "unit": "% WT"},
      {"measurement": "Binding Span ± SEM", "setting": "GLP-1R [3]; [10]", "value": "−135.7 ± 8.4"}
    ]},
    {"molecule": "O=C(O)c1cccc(NN=Cc2cn(-c3ccccc3)nc2-c2cc3ccccc3o2)c1", "note": "[Z21]", "values": [
      {"measurement": "Modulation of GLP-1-elicited cAMP accumulation / GLP-1 potency (in words)", "setting": "GLP-1R [2]", "value": "negatively modulated"},
      {"measurement": "cAMP Accumulation Emax (% WT)", "setting": "GLP-1R [2]; [7]", "value": "97.02 ± 0.81", "unit": "% WT"},
      {"measurement": "Binding Span ± SEM", "setting": "GLP-1R [3]; [8]", "value": "75.3 ± 12.57"},
      {"measurement": "Effect on binding of GLP-1 to GLP-1R (in words)", "setting": "GLP-1R [3]", "value": "decreased the binding of GLP-1 to GLP-1R"}
    ]},
    {"molecule": "CCC(C)N(CC(=O)N(Cc1cccn1Cc1ccccc1)C1CCCCC1)C(=O)C1CCC1", "note": "(stereo not drawn) [CD3532-B002]", "values": [
      {"measurement": "pEC50", "setting": "GLP-1R [5]", "value": 4.80},
      {"measurement": "cAMP Accumulation Emax (% WT)", "setting": "GLP-1R [2]; Table 4, analogues of new PAMs", "value": "92.2 ± 3.9", "unit": "% WT"},
      {"measurement": "Binding Span ± SEM", "setting": "GLP-1R [3]; [11]", "value": "N.B. ^c"},
      {"measurement": "Binding pIC50 ± SEM", "setting": "GLP-1R [3]; [11]", "value": "N.B. ^c"}
    ]}
  ]
}
